Test system: venous thromboembolism (VTE) in patients hospitalized for acute medical illness
Test: MAGELLAN (Study 1): efficacy of oral rivaroxaban 10 mg OD 35 days vs sc enoxaparin 40 mg OD 10 days then placebo
Format: in vivo
Experimental: The objective of Study 1 (MAGELLAN or MAGELLAN Study) was to compare efficacy and safety of venous thromboembolism (VTE) prophylaxis with oral rivaroxaban 10 mg once daily administered for 35±4 days (hereafter referred to as 35 days or Day 35) to subcutaneous enoxaparin 40 mg once daily (OD) administered for 10±4 days (hereafter referred to as 10 days or Day 10) in men and women aged 40 years or above, who have been hospitalized for a medical illness.
Diagnosis and main criteria for inclusion in Study 1 was men and women 40 years or above and at risk for VTE being hospitalized for acute medical illness conditions, including: heart failure (New York Heart Association [NYHA] class III or IV); active cancer (e.g., admitted for chemotherapy or for the treatment of a complication of active cancer); acute ischemic stroke; acute infectious and inflammatory diseases, including acute rheumatic diseases; and acute respiratory insufficiency. Also at least one additional risk factor for VTE, including: severe varicosis (varicosities); chronic venous insufficiency; history of cancer; history of deep vein thrombosis (DVT) or pulmonary embolism (PE); history of heart failure (NYHA class III or IV); thrombophilia (hereditary or acquired); recent major surgery (6-12 weeks); recent serious trauma (6-12 weeks); hormone replacement therapy; advanced age greater than or equal to 75 years; morbid obesity (body mass index (BMI) 35 kg/m^2 or higher); and acute infectious disease contributing to hospitalization.
The study was conducted in a prospective, randomized, double-blind, double dummy, active comparator-controlled, multicenter and multinational design. There were 8101 subjects were randomized at 556 study centers in 52 countries to one of the two treatment groups. Of the 8101 randomized subjects, 4050 were randomized to active rivaroxaban and 4051 were randomized to active enoxaparin.
Primary Endpoints: The primary efficacy variable was a composite of the number of events of: asymptomatic proximal DVT in lower extremity detected by mandatory bilateral lower extremity venous ultrasonography; symptomatic DVT in lower extremity, proximal or distal; symptomatic, non-fatal PE; and VTE-related death defined as either a well-documented fatal PE, or sudden death with no other plausible explanation. The two primary efficacy endpoints were (i) test of superiority at Day 35 (Days 29-41, inclusive) and (ii) test of non-inferiority at Day 10 (Days 6-15, inclusive).
Secondary Endpoints: The first major secondary efficacy endpoint was defined as a composite of the test of superiority at Day 35 with component of VTE-related death substituted by all-cause mortality, up to Day 35. The second major efficacy secondary efficacy endpoint was the test for superiority at Day 10 using the same composite endpoint as the Day 10 non-inferiority test.
For both primary efficacy endpoints, the relative risk ratio (rivaroxaban/enoxaparin) with respect to the incidences of the primary efficacy endpoint was estimated based on a stratified estimator using Mantel-Haenszel weights (based on sample sizes by geographic region). The corresponding asymptotic 2-sided 95% confidence interval based on the approximation to the normal distribution was determined. Sensitivity analyses were performed for the primary efficacy endpoints.
The primary efficacy variable was a composite of the number of events of (1) asymptomatic proximal DVT in lower extremity detected by mandatory bilateral lower extremity venous ultrasonography; (2) symptomatic DVT in lower extremity, proximal or distal; (3) symptomatic, nonfatal PE; and (4) VTE-related death. […]

[1] = Day 10 + 5, PP Day 10 plus major and clinically relevant bleeds
[2] = Day 10 + 5, per protocol Day 10 analysis set
[3] = Day 10 + 5 up to Day 35 + 6, mITT (Day 10 to Day 35) analysis set
[4] = Day 10 + 5 up to Day 35 + 6, mITT (Day 10 to Day 35) analysis set, listed as rivaroxaban
[5] = Day 35 + 6, mITT Day 35 analysis set
[6] = Day 35 + 6, mITT Day 35 analysis set, listed as rivaroxaban
[7] = Day 35 + 6, mITT Day 35 plus major and clinically relevant bleeds
[8] = Day 35, mITT Day 35 analysis set
[9] = rivaroxaban-placebo phase (Day 10 to Day 35), mITT (Day 10 to Day 35)

O=C(NC[C@H]1CN(c2ccc(N3CCOCC3=O)cc2)C(=O)O1)c1ccc(Cl)s1 [Rivaroxaban, 5-chloro-N-({(5S)-2-oxo-3-[4-(3-oxo-4-morpholinyl)phenyl]-1,3,oxazolidin-5-yl}methyl)-2-thiophenecarboxamide]
Major vascular events (CV death, acute myocardial infarction, or acute ischemic stroke), incidence (Day 10): 1.0%
Symptomatic VTE excluding VTE-related death, incidence (Day 10): 0.5%
Symptomatic VTE including death, incidence (Day 10): 0.7%
Net clinical benefit component: asymptomatic lower proximal deep vein thrombosis [1]: 71 (2.4%)
Net clinical benefit component: clinically relevant non-major bleeding [1]: 51 (1.7%)
Net clinical benefit component: death (pulmonary embolism) [1]: 3 (0.1%)
Net clinical benefit component: major bleeding [1]: 9 (0.3%)
Net clinical benefit component: symptomatic deep vein thrombosis in lower extremity [1]: 7 (0.2%)
Net clinical benefit component: symptomatic non-fatal pulmonary embolism [1]: 6 (0.2%)
Net clinical benefit component: venous thromboembolism related death [1]: 3 (0.1%)
Net clinical benefit, any event, incidence [1]: 134 (4.5%)
Net clinical benefit, any event, incidence (Day 10 + 5, PP Day 10 plus major and clinically relevant bleeds, listed as rivaroxaban): 4.5%
Asymptomatic proximal deep vein thrombosis in lower extremity, incidence [2]: 71 (2.4%)
Death (pulmonary embolism cannot be excluded), incidence [2]: 3 (0.1%)
Primary efficacy composite, any event, incidence [2]: 78 (2.7%)
Symptomatic deep vein thrombosis in lower extremity, incidence [2]: 7 (0.2%)
Venous thromboembolism related death, incidence [2]: 3 (0.1%)
Primary efficacy composite, any event, incidence (Day 10 + 5, per protocol Day 10 analysis set, listed as rivaroxaban): 2.7%
Asymptomatic proximal deep vein thrombosis in lower extremity, incidence [3]: 81 (2.1%)
Death (pulmonary embolism cannot be excluded), incidence [3]: 8 (0.3%)
Death (pulmonary embolism), incidence [3]: 1 (<0.1%)
Symptomatic deep vein thrombosis in lower extremity, incidence [3]: 3 (0.1%)
Symptomatic non-fatal pulmonary embolism, incidence [3]: 1 (<0.1%)
Venous thromboembolism related death, incidence [3]: 9 (0.3%)
Primary efficacy composite, any event, incidence (Day 10 + 5 up to Day 35 + 6, mITT (Day 10 to Day 35) analysis set, rivaroxaban-placebo phase): 72 (2.5%)
Primary efficacy composite, any event, incidence (Day 10 + 5 up to Day 35 + 6, mITT (Day 10 to Day 35) analysis set, rivaroxaban-placebo phase, listed as rivaroxaban): 2.5%
Asymptomatic proximal deep vein thrombosis in lower extremity, incidence [4]: 2.1%
Venous thromboembolism related death, incidence [4]: 0.3%
Relative risk (rivaroxaban/enoxaparin), primary efficacy composite (Day 10, PP Day 10 analysis set): 0.968
Relative risk reduction, primary efficacy composite (Day 10, PP Day 10 analysis set): 3.25%
Relative risk vs enoxaparin, subgroup (Day 10 PP, active cancer): 2.500
Relative risk vs enoxaparin, subgroup (Day 10 PP, age subgroup 65 to <75 years): 1.88
Relative risk vs enoxaparin, subgroup (Day 10 PP, complete immobilization >6 days post randomization): 0.671
Relative risk vs enoxaparin, subgroup (Day 10 PP, complete immobilization post randomization 4-6 days): 1.75
Major vascular events, incidence (Day 35): 1.8%
Symptomatic VTE excluding VTE-related death, incidence (Day 35): 0.6%
Symptomatic VTE including death, incidence (Day 35): 1.0%
Asymptomatic proximal deep vein thrombosis in lower extremity, incidence [5]: 103 (3.5%)
Death (pulmonary embolism cannot be excluded), incidence [5]: 18 (0.6%)
Death (pulmonary embolism), incidence [5]: 1 (<0.1%)
Primary efficacy composite, any event, incidence [5]: 131 (4.4%)
Symptomatic deep vein thrombosis in lower extremity, incidence [5]: 13 (0.4%)
Symptomatic non-fatal pulmonary embolism, incidence [5]: 10 (0.3%)
Venous thromboembolism related death, incidence [5]: 19 (0.6%)
Asymptomatic proximal deep vein thrombosis in lower extremity, incidence [6]: 3.5%
Primary efficacy composite, any event, incidence [6]: 4.4%
Venous thromboembolism related death, incidence [6]: 0.6%
Net clinical benefit component: asymptomatic lower proximal deep vein thrombosis [7]: 104 (3.4%)
Net clinical benefit component: clinically relevant non-major bleeding [7]: 124 (4.1%)
Net clinical benefit component: death (pulmonary embolism cannot be excluded) [7]: 18 (0.6%)
Net clinical benefit component: death (pulmonary embolism) [7]: 1 (<0.1%)
Net clinical benefit component: major bleeding [7]: 43 (1.4%)
Net clinical benefit component: symptomatic deep vein thrombosis in lower extremity [7]: 13 (0.4%)
Net clinical benefit component: symptomatic non-fatal pulmonary embolism [7]: 10 (0.3%)
Net clinical benefit component: venous thromboembolism related death [7]: 19 (0.6%)
Net clinical benefit, any event, incidence [7]: 286 (9.4%)
Net clinical benefit, any event, incidence (Day 35 + 6, mITT Day 35 plus major and clinically relevant bleeds, listed as rivaroxaban): 9.4%
Relative risk (rivaroxaban/enoxaparin), primary efficacy composite [8]: 0.771
Relative risk reduction, primary efficacy composite [8]: 22.89%
Composite endpoint including all-cause mortality, incidence (Day 35, mITT Day 35 expanded): 8.6%
Relative risk, composite endpoint including all-cause mortality (Day 35, mITT Day 35 expanded): 0.931
Relative risk vs enoxaparin, subgroup (Day 35 mITT, active cancer): 1.340
Relative risk vs enoxaparin, subgroup (Day 35 mITT, acute infectious and inflammatory disease): 0.657
Relative risk vs enoxaparin, subgroup (Day 35 mITT, age subgroup 75 years): 0.624
Relative risk vs enoxaparin, subgroup (Day 35 mITT, subjects in Western Europe (including Australia, New Zealand, Israel)): 0.5
All-cause mortality, incidence (Day 90): 6.7%
Major vascular events, incidence (Day 90): 2.8%
Symptomatic VTE excluding VTE-related death, incidence (Day 90): 0.7%
Symptomatic VTE including death, incidence (Day 90): 1.7%
Relative risk reduction, primary efficacy composite [9]: 35.14%
Relative risk, primary efficacy composite [9]: 0.649

— US20200397795A1, “PROPHYLACTIC TREATMENT OF VENOUS THROMBOEMBOLISM” (JANSSEN PHARMACEUTICALS, INC., priority 2019, published 2020)
